Experimental data taken from BindingDB's records for doi:10.3109/14756366.2011.590804 (University of Karachi, 2012).

The molecules below were run against Beta-glucuronidase (Escherichia coli (strain K12), UniProt P05804) (assay: β-Glucuronidase Inhibition Assay). Settings: pH 7; 37 °C.
Protocol: β-Glucuronidase inhibitory activity was evaluated by a biochemical assay, based on the measurement of the absorbance of p-nitrophenol at 405 nm, produced from the enzymatic hydrolysis of chromogenic substrate [Choudhary et al., Steroids, 74:1040-1044; Khan et al., Chem. Pharm. Bull., 50:1443-1446]. The reaction mixture, consisting of 5 μL of test compound solution, 185 μL of 0.1 M acetate buffer (pH 7.0) and 10 μL β-glucuronidase solution, was kept for 30 min at 37°C. The total reaction volume being 250 μL. 50 μL of p-nitrophenyl-β-D-glucuronide was added to each plate. A multiplate reader was used to read the absorbance at 405 nm.

Beta-glucuronidase, sequence (P05804 whole entry): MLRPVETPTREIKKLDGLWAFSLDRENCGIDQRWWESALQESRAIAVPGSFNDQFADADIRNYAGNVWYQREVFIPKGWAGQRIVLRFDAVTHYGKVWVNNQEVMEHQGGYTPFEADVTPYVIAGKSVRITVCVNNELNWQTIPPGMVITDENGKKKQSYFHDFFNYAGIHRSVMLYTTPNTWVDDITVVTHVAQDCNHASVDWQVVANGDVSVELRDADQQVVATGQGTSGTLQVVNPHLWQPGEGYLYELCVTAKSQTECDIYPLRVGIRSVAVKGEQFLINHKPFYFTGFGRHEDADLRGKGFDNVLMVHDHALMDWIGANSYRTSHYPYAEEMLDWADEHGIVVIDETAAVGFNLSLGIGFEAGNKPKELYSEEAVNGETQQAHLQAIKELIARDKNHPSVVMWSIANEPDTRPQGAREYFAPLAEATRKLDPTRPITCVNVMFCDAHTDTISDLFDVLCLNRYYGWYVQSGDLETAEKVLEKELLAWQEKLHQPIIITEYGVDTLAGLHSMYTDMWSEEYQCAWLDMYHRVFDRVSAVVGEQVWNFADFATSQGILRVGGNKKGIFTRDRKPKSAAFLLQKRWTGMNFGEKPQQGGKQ

| Structure (SMILES) | IC50 [µM] |
| --- | --- |
| C[C@]12CC[C@H]3[C@@H]([C@@H](O)CC4=C[C@@H](O)CC[C@@]43C)[C@@H]1CC[C@@H]2O [Androst-4-ene-3β,7β,17β-triol (8)] | 191 |
| C[C@]12CCC(=O)CC1CC[C@@H]1[C@@H]2CC[C@]2(C)C(=O)CC[C@@H]12 (some centres undefined) [Androstane-3,17-dione (2)] | 374 |
| C[C@]12CCC(=O)C=C1CC[C@@H]1[C@@H]2CC[C@]2(C)C(=O)CC[C@@H]12 [Androst-4-en-3,17-dione, 2] | 430 |
| C[C@]12CC[C@H](O)C=C1C(=O)C[C@@H]1[C@@H]2CC[C@]2(C)C(=O)CC[C@@H]12 [Androst-4-ene-3β-ol-6,17-dione (7)] | 222 |
